1 compound from PMC6442119, “The antitumor activity of CYB-L10, a human topoisomerase IB catalytic inhibitor” (Journal of Enzyme Inhibition and Medicinal Chemistry, 2019) can be followed below.

Series [1] in a line: Pharmacokinetic study in rat. Format: in vivo. Particulars: male, Sprague-Dawley, plasma, SD rats. Here is the method:
Blood samples (200 µL) were collected into heparinized tubes via the jugular vein at the following times: 0.083, 0.25, 0.5, 1, 2, 5, 7, and 24 h after dosing. Plasma samples (100 µL) were obtained after centrifugation for 10 min at 3000 rpm and stored at −20 °C until used for analysis. The plasma was detected through LC-MS/MS.
The in vivo pharmacokinetic (PK) study of CYB-L10 was conducted in SD rats. The SD rats were divided into two groups (n = 2) and treated by i.v. injection at 1 mg/kg dose and i.g. at 5 mg/kg dose, respectively. The plasma samples were collected up to 24 h postdose and measured for the concentration of CYB-L10. By i.v. administration, the AUC0→∞ was 241 ± 40 h·ng/mL, and T1/2 was 18.4 ± 5.12 h.

For series [2], the system named is HCT116 xenograft. Briefly: In vivo antitumor activity, HCT116 xenograft. Also noted: species or system nude mice. Particulars: for tumor weight inhibition (TWI): HCT116 xenograft nude mice. Here is the method: Athymic nude mice bearing the nu/nu gene were obtained from Laboratory Animal Center of Sun Yat-sen University and maintained in pathogen-free conditions to establish the model of xenografts of HCT116. All animals were used under the Policy on the Care and Use of Laboratory Animal of Sun Yat-sen University. Male nude mice 4–5 weeks old weighing 12–15 g were used. HCT116 tumor preinduced in the mice by subcutaneously injecting of HCT116 cells (100 µL, 1 × 10^7 cells) was implanted. When the implanted tumors had reached a volume of about 80 mm^3, the mice were randomly divided into three groups (n = 5) and administered by i.p. injection at a frequency of once every 3 days. The testing groups were treated with CYB-L10 at 20 mg/kg and 6.7 mg/kg dose, respectively. The control group was treated with an equivalent volume of saline. Tumor volumes (V) were monitored by caliper measurement of the length and width, and calculated using the formula: V = (larger diameter) × (smaller diameter)^2/2, and growth curves were plotted using average tumor volume within each experimental group at the set time points. At the end of treatment, the animals were sacrificed, and the tumors were removed and weighed. The tumor weight inhibition (TWI) was calculated according to the formula: TWI = (1 − Mean tumor weight of the experimental group/Mean tumor weight of the control group) × 100%. Statistical comparisons were conducted using a one-way analysis of variance, followed by Tukey’s test.
A human colon cancer HCT116 xenograft nude mice model was established to evaluate the antitumor efficiency of CYB-L10 in vivo. Mice were randomly divided into three groups and administered i.p. injection at a frequency of once every 3 days. Two groups were treated with CYB-L10 at 20 mg/kg and 6.7 mg/kg dose, respectively. The negative control group was treated with an equivalent volume of saline.

The test system of series [3] is HL-60 (TB). As to the kind of experiment: NCI60 assay. Format: cell-based. Conditions: Homo sapiens, Leukemia, 48 h. Here is the method: The NCI60 (National Cancer Institute 60) tumor cell drug discovery panel was developed as a tool to assess the anticancer activity of compounds against a range of cell lines derived from nine cancer cell types, including hematological malignancies, lung, central nervous system, melanoma, colorectal, renal, breast, ovarian, and prostate[18]^,[23]^,[24]. CYB-L10 was tested using the protocols by the NCI, which has been described previously. […] The overall antiproliferative potential is quantified as a mean-graph midpoint (MGM).
It was selected and submitted to National Cancer Institute (NCI, USA) for a developmental therapeutics assay against the 60 clinical tumor cell lines representing nine tissue types (NCI60)[23–25]. The tumor cells were incubated with CYB-L10 for 48 h and stained with sulphorhodamine B dye. Cell growth inhibition (GI50) was calculated relative to the control without compound.

For series [4], the system named is HCT116-siTop1. As to the kind of experiment: MTT assay. The class given is cell-based. Particulars: Homo sapiens; Resistant subline HCT116-siTop1, MTT, 72 h. (Tetrazolium dyes change colour on reduction, which living cells bring about.)

Broadly, the AUC(0-inf) is total exposure, with the tail of the curve extrapolated. A high value points to more exposure. As usually defined, the half-life is how long it takes for the measured level to halve. The low end stands for rapid decline, the high end for slow decline. Broadly, the bioavailability is the share of a dose that reaches the circulation, judged against a reference dose that is usually intravenous. As a reminder, the Cmax is the maximum level reached in the sampled fluid or tissue. As usually defined, the Tmax is the time at which the peak concentration occurs. What is called GI50 is the concentration giving 50% growth inhibition. The low end stands for greater sensitivity of the cells, the high end for lower sensitivity of the cells.

In series [1] (iv, i.v. 1 mg/kg), `O=C1c2cccnc2C(=O)c2c1c(C(=O)OCCN1CCOCC1)c1ccccn21` [CYB-L10] had an AUC(0-inf) of 241 ± 40 ng·h/mL and a half-life of 18.4 ± 5.12 h. For the same compound, the bioavailability in series [1] (oral, i.g. 5 mg/kg vs i.v. 1 mg/kg, read-out: F (bioavailability)) was determined as 6.3%. In series [1] (po, i.g. 5 mg/kg), the AUC(0-inf) turned out to be 76 ± 16.5 ng·h/mL, the Cmax was 24.7 ± 6.59 ng/mL, the time of peak concentration (Tmax) stood at 0.46 ± 0.1 h and the half-life is 18.4 ± 7.77 h. Also, the “tumor weight inhibition (TWI)” value in series [2] (6.7 mg/kg i.p. once every 3 days) turned out to be 27.6%. In addition, in series [2] (20 mg/kg i.p. once every 3 days, p < 0.05), the “tumor weight inhibition (TWI)” value is reported as 38.3%. The “body weight of the mice” value in series [2] (20 and 6.7 mg/kg i.p., vs negative control) was “no obvious loss”. For the same compound, the tumor volume result in series [2] (20 and 6.7 mg/kg i.p., vs negative control, dose-dependent) is listed as “obviously reduced the tumor volume”. The compound further gave a GI50 in series [3] of 240 nM. For the same compound, the GI50 in series [4] came out at 190 ± 92 nM.
